Consider one compound from the NIST ThermoML archive (doi:10.1016/j.fluid.2018.01.015).

A short description of data set [1]: Molar enthalpy of transition or fusion. The conditions noted are these: Crystal; DSC.
For data set [2] the following is noted: Crystal; DTA.

SMILES strings stand for the structures. Numbers after ± are expanded uncertainties.

With `Cc1cc(C)c(C(=O)P(=O)(c2ccccc2)c2ccccc2)c(C)c1` [(2,4,6-trimethylbenzoyl) diphenylphosphine oxide], in data set [1], the “Molar enthalpy of transition or fusion” value was determined as 25.2 ± 0.72 kJ/mol. Also, in data set [2], the Normal melting temperature is 92.66 ± 0.39 °C.
